Assay results from ChEMBL document CHEMBL4765469, “2-((3,5-Dinitrobenzyl)thio)quinazolinones: Potent Antimycobacterial Agents Activated by Deazaflavin (F)-Dependent Nitroreductase (Ddn)” (J Med Chem, 2021).
In brackets after ≈: the same amount, converted by molar mass.

Experiments:
[1] = system: Mycobacterium tuberculosis; experiment: Antitubercular activity against Mycobacterium tuberculosis H37Rv ATCC 27294 grown under Middlebrook 7H9 Broth assessed as inhibition of all visible growth incubated for 7 to 14 days; assay type: functional; conditions: time 7-14 day
[2] = system: Mycobacterium tuberculosis; experiment: Ratio of MIC for antitubercular activity against Mycobacterium tuberculosis H37Rv ATCC 27294 grown under 7H9/ glucose liquid culture in presence of BSA to MIC for antitubercular activity against Mycobacterium tuberculosis H37Rv ATCC 27294 grown under 7H9/ glucose liquid culture; assay type: functional; conditions: read-out: MIC>99
[3] = system: Mycobacterium tuberculosis; experiment: Antitubercular activity against Mycobacterium tuberculosis H37Rv ATCC 27294 grown under GAST/Fe medium assessed as inhibition of all visible growth incubated for 7 to 14 days; assay type: functional; conditions: time 7-14 day
[4] = system: Mycobacterium tuberculosis; experiment: Antitubercular activity against Mycobacterium tuberculosis 14A1 deficient in nitroreductase rv3547 assessed as inhibition of all visible growth grown under 7H9/ glucose liquid culture incubated for 7 to 14 days; assay type: functional; conditions: time 7-14 day
[5] = Cytotoxicity in human MRC5 cells by neutral red uptake assay; assay type: cell-based
[6] = system: Mycobacterium tuberculosis; experiment: Antitubercular activity against Mycobacterium tuberculosis H37Rv ATCC 27294 grown under 7H9/ glucose liquid culture in presence of BSA assessed as inhibition of all visible growth incubated for 7 to 14 days; assay type: functional; conditions: time 7-14 day
[7] = system: Mycobacterium tuberculosis; experiment: Antitubercular activity against Mycobacterium tuberculosis H37Rv; assay type: functional
[8] = (§1) Inhibition of Mycobacterium tuberculosis thymidylate kinase in presence of ATP, dTMP, NADH and phosphoenol pyruvate by spectrophotometric assay
[9] = system: Mycobacterium tuberculosis; experiment: Antitubercular activity against Mycobacterium tuberculosis H37Rv ATCC 27294 grown under 7H9/ADC assessed as inhibition of all visible growth incubated for 7 to 14 days; assay type: functional; conditions: time 7-14 day
[10] = system: Mycobacterium tuberculosis; experiment: as §1
[11] = Genotoxicity in Salmonella typhimurium TA98 up to 349 uM incubated for 48 hrs in absence of rat liver S9 fraction by Ames test; assay type: toxicity; conditions: salmonella enterica subsp. enterica serovar typhimurium, s9, 48 h
[12] = Inhibition of Mycobacterium tuberculosis thymidylate kinase
[13] = Genotoxicity in Salmonella typhimurium TA100 up to 349 uM incubated for 48 hrs in absence of rat liver S9 fraction by Ames test; assay type: toxicity; conditions: salmonella enterica subsp. enterica serovar typhimurium, s9, 48 h
[14] = Genotoxicity in Salmonella typhimurium TA98 up to 349 uM incubated for 48 hrs in presence of rat liver S9 fraction by Ames test; assay type: toxicity, subcellular; conditions: salmonella enterica subsp. enterica serovar typhimurium, s9, 48 h
[15] = Genotoxicity in Salmonella typhimurium TA100 up to 349 uM incubated for 48 hrs in presence of rat liver S9 fraction by Ames test; assay type: toxicity, subcellular; conditions: salmonella enterica subsp. enterica serovar typhimurium, s9, 48 h

| SMILES | MIC99 [1] [µM] | MIC ratio, with BSA / without BSA [2] [µM] | MIC99 [3] [µM] | CC50 [5] [µM] | MIC99 [6] [µM] | further results |
| --- | --- | --- | --- | --- | --- | --- |
| CN1CCN(c2ccc3nc(SCc4cc([N+](=O)[O-])cc([N+](=O)[O-])c4)[nH]c(=O)c3c2)CC1 | 9.4 (≈ 4.29 µg/mL) | 1 | 9.4 (≈ 4.29 µg/mL) | 49 | 9.4 | MIC99 [4]: 37 µM (≈ 16.9 µg/mL) |
| CSc1cc(-c2ccccc2)nc(O)c1C#N | – | – | – | – | – | MIC [7]: > 64 µM |
| O=c1[nH]c(SCc2cc([N+](=O)[O-])cc(C(F)(F)F)c2)nc2ccccc12 | > 50 | – | – | > 64 | – | – |
| O=c1[nH]c(SCc2ccc([N+](=O)[O-])cc2)nc2ccccc12 | ≥ 50 | – | – | > 64 | – | – |
| COc1ccc(CSc2nc3ccccc3c(=O)[nH]2)cc1 | > 50 | – | – | > 64 | – | – |
| CCOC(=O)C1=C(NC(=O)c2c(F)c(F)c(F)c(F)c2F)OC(C(N)=O)C1C (stereo not given) | – | – | – | – | – | MIC [7]: 0.5 µM |
| N#Cc1c(-c2cccc(Br)c2)nc(SCc2ccccc2)[nH]c1=O | 25 (≈ 9.96 µg/mL) | – | – | > 36 | – | IC50 [8]: 49 µM |
| CCOC(=O)C1=C(NC(=O)c2c(F)c(F)c(F)c(F)c2F)OC2CN(CC)CCC12 (stereo not given) | – | – | – | – | – | MIC [7]: 0.69 µM |
| O=c1[nH]c([S+]([O-])Cc2cc([N+](=O)[O-])cc([N+](=O)[O-])c2)nc2ccccc12 (stereo not given) | 50 (≈ 18.7 µg/mL) | – | – | > 64 | – | IC50 [8]: 217 µM |
| O=c1[nH]c(SCc2ccccc2Cl)nc2ccccc12 | 2.3 (≈ 0.696 µg/mL) | > 21.7 | 37 (≈ 11.2 µg/mL) | > 65 | > 50 | MIC99 [9]: > 50 µM |
| NNC(=O)c1ccncc1 | – | – | – | – | – | MIC>99 [10]: 0.15 µM |
| O=[N+]([O-])c1ccc2c(c1)Cc1ccccc1-2 [2-NITROFLUORENE] | – | – | – | – | – | Activity [11]: Toxic |
| O=c1[nH]c(SCc2cc([N+](=O)[O-])cc([N+](=O)[O-])c2)nc2ccc(Cl)cc12 | 0.78 (≈ 0.306 µg/mL) | 4 | 0.2 (≈ 0.0786 µg/mL) | > 64 | 3.13 | MIC99 [9]: 4.7 µM (≈ 1.85 µg/mL) |
| O=c1[nH]c(SCc2ccccc2[N+](=O)[O-])nc2ccccc12 | 12.5 (≈ 3.92 µg/mL) | > 4 | 25 (≈ 7.83 µg/mL) | > 64 | > 50 | MIC99 [9]: > 50 µM |
| O=c1[nH]c(SCc2cc([N+](=O)[O-])cc([N+](=O)[O-])c2)nc2ncccc12 | ≥ 50 | – | – | > 64 | – | – |
| O=c1[nH]c(SCc2ccc([N+](=O)[O-])cc2[N+](=O)[O-])nc2ccccc12 | > 50 | – | – | > 64 | – | – |
| Cc1ccc2nc(SCc3cc([N+](=O)[O-])cc([N+](=O)[O-])c3)[nH]c(=O)c2c1 | 1.56 (≈ 0.581 µg/mL) | 4 | 1.56 (≈ 0.581 µg/mL) | > 64 | 6.25 | MIC99 [4]: > 50 µM |
| O=c1[nH]c(SCc2cc([N+](=O)[O-])cc([N+](=O)[O-])c2)nc2cccnc12 | 19 (≈ 6.83 µg/mL) | > 2.6 | 12.5 (≈ 4.49 µg/mL) | > 64 | > 50 | MIC99 [4]: 50 µM (≈ 18 µg/mL) |
| O=c1[nH]c(SCc2ccccc2)nc2ccccc12 | 12.5 (≈ 3.35 µg/mL) | > 4 | 19 (≈ 5.1 µg/mL) | > 64 | > 50 | MIC99 [9]: > 50 µM |
| O=c1[nH]c(SCc2ccc(-c3ccccc3)cc2)nc2ccccc12 | > 50 | – | – | > 64 | – | – |
| N#Cc1c(-c2cccc(Br)c2)nc(SCc2cc([N+](=O)[O-])cc([N+](=O)[O-])c2)[nH]c1=O | > 64 | – | – | > 64 | – | IC50 [8]: 4.3 µM |
| O=C(CSc1nc2c(F)cccc2c(=O)[nH]1)NC1CCC(F)(F)CC1 | – | – | – | – | – | MIC [7]: 0.09 µM |
| Oc1nc(SCc2ccc(Cl)cc2)nc2ccccc12 | > 50 | – | – | > 64 | – | – |
| O=c1[nH]c(SCc2cc([N+](=O)[O-])cc([N+](=O)[O-])c2)nc2c(Cl)cccc12 | > 50 | – | – | > 64 | – | – |
| CSc1nc(-c2cccc(Br)c2)c(C#N)c(=O)[nH]1 | 25 (≈ 8.05 µg/mL) | – | – | > 64 | – | IC50 [8]: 82 µM |

| SMILES | MIC99 [1] [µM] | MIC ratio, with BSA / without BSA [2] [µM] | MIC99 [3] [µM] | CC50 [5] [µM] | MIC99 [6] [µM] | further results |
| --- | --- | --- | --- | --- | --- | --- |
| O=c1[nH]c(SCc2cc([N+](=O)[O-])cc([N+](=O)[O-])c2)nc2ccc(Br)cc12 | 3.13 (≈ 1.37 µg/mL) | 11.8 | 3.13 (≈ 1.37 µg/mL) | > 64 | 37 | MIC99 [4]: > 50 µM |
| COc1cccc(-c2cc(SC)c(C#N)c(=O)[nH]2)c1 | – | – | – | – | – | MIC [7]: > 64 µM; IC50 [12]: 1.5 µM |
| O=c1[nH]c(SCc2cc([N+](=O)[O-])cc([N+](=O)[O-])c2)nc2ccc(F)cc12 | 1.2 (≈ 0.452 µg/mL) | 52 | 1.2 (≈ 0.452 µg/mL) | > 64 | 6.25 | MIC99 [4]: 6.25 µM (≈ 2.35 µg/mL) |
| O=c1[nH]c(SCc2cc([N+](=O)[O-])cc([N+](=O)[O-])c2)nc2cnccc12 | > 50 | – | – | > 64 | – | – |
| O=c1[nH]c(SCc2cccs2)nc2ccccc12 | > 50 | – | – | > 64 | – | – |
| Cc1ccc(CSc2nc(O)c3ccccc3n2)cc1 | > 50 | – | – | > 64 | – | – |
| O=c1[nH]c(SCc2cc([N+](=O)[O-])cc([N+](=O)[O-])c2)nc2ccc(N3CCOCC3)cc12 | 4.7 (≈ 2.08 µg/mL) | 0.66 | 3.13 (≈ 1.39 µg/mL) | > 64 | 3.13 | MIC99 [4]: 19 µM (≈ 8.43 µg/mL) |
| O=c1[nH]c(SCc2ccc([N+](=O)[O-])o2)nc2ccccc12 | > 50 | – | – | 35 | – | – |
| O=c1[nH]c(SCc2cc([N+](=O)[O-])cc([N+](=O)[O-])c2)nc2cccc(Cl)c12 | ≥ 50 | – | – | > 64 | – | – |
| COc1ccccc1CSc1nc2ccccc2c(=O)[nH]1 | > 50 | – | – | – | – | – |
| O=c1[nH]c(SCc2cc([N+](=O)[O-])cc([N+](=O)[O-])c2)nc2ccc(N3CCCCC3)cc12 | > 50 | – | – | > 64 | – | – |
| Cn1c(SCc2cc([N+](=O)[O-])cc([N+](=O)[O-])c2)nc2ccccc2c1=O | 1.56 (≈ 0.581 µg/mL) | 2 | 0.39 (≈ 0.145 µg/mL) | > 64 | 3.13 | MIC99 [9]: 3.13 µM (≈ 1.17 µg/mL) |
| O=C(CSc1nc2ccccc2c(=O)[nH]1)NC1CCCCC1 | – | – | – | – | – | MIC [7]: 0.3 µM |
| O=c1[nH]c(SCc2ccc(Cl)c(Cl)c2)nc2ccccc12 | > 50 | – | – | > 64 | – | – |
| O=c1[nH]c(SCc2c([N+](=O)[O-])cccc2[N+](=O)[O-])nc2ccccc12 | > 50 | – | – | > 64 | – | – |
| COc1cccc(CSc2nc3ccccc3c(=O)[nH]2)c1 | 0.78 (≈ 0.233 µg/mL) | > 64 | 50 (≈ 14.9 µg/mL) | > 64 | > 50 | MIC99 [9]: > 50 µM |
| CN(C)c1ccc2nc(SCc3cc([N+](=O)[O-])cc([N+](=O)[O-])c3)[nH]c(=O)c2c1 | > 50 | – | – | 14 | – | – |
| CC1CCN(Cc2c(O)ccc3oc4c5ccccc5oc(=O)c4c23)CC1 | – | – | – | – | – | MIC [7]: 0.125 µg/mL |
| O=c1[nH]c(SCc2cc([N+](=O)[O-])cc([N+](=O)[O-])c2)nc2cc(Cl)ccc12 | 2.3 (≈ 0.903 µg/mL) | 10.8 | 0.72 (≈ 0.283 µg/mL) | > 64 | 25 | MIC99 [9]: 25 µM (≈ 9.82 µg/mL) |
| O=c1[nH]c(SCc2cc([N+](=O)[O-])cc([N+](=O)[O-])c2)nc2ccccc12 | 0.6 (≈ 0.215 µg/mL) | 2.6 | 0.78 (≈ 0.28 µg/mL) | > 64 | 1.56 | Activity [13]: Non-Toxic; Activity [14]: Non-Toxic; MIC99 [4]: 12.5 µM (≈ 4.48 µg/mL); Activity [15]: Non-Toxic; IC50 [8]: 120 µM; Activity [11]: Toxic; MIC99 [9]: 2.3 µM (≈ 0.824 µg/mL) |
| O=c1[nH]c(SCc2ccc([N+](=O)[O-])s2)nc2ccccc12 | 350 (≈ 112 µg/mL) | – | – | > 64 | – | – |
| O=c1[nH]c(SCc2cccc([N+](=O)[O-])c2)nc2ccccc12 | > 50 | – | – | > 64 | – | – |
| Oc1nc(SCc2cccc(Cl)c2)nc2ccccc12 | 3.13 (≈ 0.948 µg/mL) | > 16 | 19 (≈ 5.75 µg/mL) | > 64 | > 50 | MIC99 [9]: > 50 µM |
| CCOC(=O)c1c(-c2ccccc2)oc2ccc(O)c(CN3CCC(C)CC3)c12 | – | – | – | – | – | MIC [7]: 1 µg/mL |
| O=c1[nH]c(SCc2cc([N+](=O)[O-])cc([N+](=O)[O-])c2)nc2ccncc12 | > 50 | – | – | > 64 | – | – |
